The results in this text go back to patent publication US7279548B2, “Identification and isolation of novel polypeptides having WW domains and methods of using same” (Cytogen Corporation, priority 1996, dated 2007).

This assay deals with T1, WWP3 WW domain expressed as GST fusion protein (Homo sapiens, UniProt Q96QZ7).
T1 construct: made in house
Nature of the assay: ELISA based cross affinity mapping, WWP3 WW domain. The class given is binding. To be noted: biotinylated peptide-streptavidin/alkaline phosphatase complex. On the procedure: The 16 day mouse embryo cDNA expression library was diluted 1:1000 in SM solution (100 mM NaCl, 8 mM MgSOv4, 50 mM Tris HCl pH 7.5, 0.01% gelatin). To a sterile test tube, 2 μl of diluted mouse embryo library, 100 μl of 10 mM CaCl2, 100 μl of 10 mM MgCl2 and 100 μl of BL21(DE3)pLysE bacterial cells (grown overnight) were added and incubated for 30 minutes at 37° C. The contents of the tube were mixed with 3 ml of 0.6% top agarose, containing […] chloramphenicol, and poured onto a 2xYT plate (90 mm diameter). For a large primary screen, 10–20 plates were prepared with 3×10^4 pfu per plate. After 6 hours incubation at 37° C., a nitrocellulose filter soaked in 10 mM isopropyl-β-D-thiogalactopyranoside (IPTG) was overlaid on each plate and incubated 3–6 hours at 37° C. Before the filters were removed from the plates, they were marked asymmetrically with India ink in a 18 gauge syringe needle. The plates were stored at 4° C. until ready for the secondary screen. The filters were washed with PBS (137 mM NaCl, 2.7 mM KCl, 4.3 mM Na2HPO4, 1.4 mM KH2PO4)-0.05% Triton X-100 three times at room temperature, 15 minutes each wash, and then placed in a plastic bag containing non-specific blocking solution (PBS-2% BSA) for one hour. In the meantime, 1 ml of 1 mM biotinylated peptide in PBS-0.1% Tween 20 was added to 20 ml of 1 mg/ml streptavidin-alkaline phosphatase (SA-AP) in PBS-0.1% Tween 20 and incubated at 4° C. for 30 minutes. As an alternative method of forming multivalent complexes, 50 pmol biotinylated peptide could have been incubated with 2 μg SA-AP (for a biotin:biotin-binding site ratio of 1:1). Excess biotin-binding sites would then be blocked by addition of 500 pmol biotin. As a further alternative, 31.2 μl of 1 mg/ml SA-AP could have been incubated with 15 μl of 0.1 mM biotinylated peptide for 30 min at 4° C. Ten μl of 0.1 mM biotin would then be added, and the solution incubated for an additional 15 min.
To determine the ligand preferences of the novel WW omain-containing clones described in Sections 6.1 and 6.1.1, as well as addressing the issue of whether peptides containing PPPPY (SEQ ID NO:3)-like motifs derived from a variety of proteins could also serve as recognition units and bind to these clones, a cross affinity mapping experiment was performed (FIGS. 15A–D). The peptides shown in FIGS. 15A–D were synthesized, biotinylated, complexed with streptavidin-alkaline phosphatase, and tested in an ELISA based assay for their ability to bind to the twelve individual novel WW domains of WWP1, WWP2, WWP3 and WWP4 which were expressed as GST fusion proteins. The ELISA based cross-affinity experiments were performed essentially as described by Sparks et al. (1996, Proc. Natl. Acad. Sci. 93:1540–1544) with the following modifications. Briefly, microtiter wells were coated with 1–5 μg of fusion protein in 100 mM NaHCO3, blocked with SuperBlock TBS (Pierce) and washed four times with PBS, 0.05% Tween 20. Specific peptide-streptavidin/alkaline phosphatase complexes were added as above and unbound complexes washed five times with PBS, 0.05% Tween 20. Following addition of PNP substrate (p-nitrophenyl phosphate, Kirkegard & Perry Labs), peptide binding was quantitated after 30 min. at O.D. 405 nm. Relative binding measurements from three independent determinations were assigned to a scale as follows: O.D. units 0–0.5=(−), 0.5–1.0=(+), 1.0–2.0=(++), 2.0–3.0=(+++), >3.0=(++++). Peptide binding to human Fyn and Lyn SH3 and SH2 domains was assessed by a filter binding assay (see Section 6.1 and Sparks et al., 1996, Proc. Natl. Acad. Sci 93:1540–1544). […]
(An ELISA detects its analyte on a solid surface through an enzyme-linked reagent.)

Entries after “also recorded” stand apart in the source; their conditions may differ. No end group written: not given here. *: point of attachment. Biotin = O=C1N[C@H]2[C@H](CS[C@H]2CCCCC(=O)*)N1

T1 sequence (Q96QZ7 300-337 limits assumed): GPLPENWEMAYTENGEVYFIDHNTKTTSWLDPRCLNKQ

Consider Biotin-SGSGPGTPPPPYTVGPGY [WBP-1], for which the “binding to WWP3 WW domain” value is “not”.

For Biotin-SGSGPGTPYPPPPEFY [WBP-2B], the “binding to WWP3 WW domain” value was “not”.

Regarding Biotin-SGSGYVQPPPPPYPGPM [WBP-2A], the “binding to WWP3 WW domain” value is “specifically binds; also recorded: bound”.
